Laboratory results: paper PMC6380468, “Investigations on small molecule inhibitors targeting the histone H3K4 tri-methyllysine binding PHD-finger of JmjC histone demethylases” (Bioorganic & Medicinal Chemistry, 2018)

Assays:
KDM5A_c2 (ΔARID/PHD1) = molecular target: T1, KDM5A_c2 (ΔARID/PHD1) (Homo sapiens, UniProt P29375); assay: MALDI-TOF MS H3K4me3 demethylation assay, KDM5A_c2; format: biochemical; conditions: average ± StdDev of n = 2, read-out: IC50, inhibition of H3K4me3 demethylation activity, KDM5A_c2
T1 sequence (P29375 with tags, fused parts or gaps): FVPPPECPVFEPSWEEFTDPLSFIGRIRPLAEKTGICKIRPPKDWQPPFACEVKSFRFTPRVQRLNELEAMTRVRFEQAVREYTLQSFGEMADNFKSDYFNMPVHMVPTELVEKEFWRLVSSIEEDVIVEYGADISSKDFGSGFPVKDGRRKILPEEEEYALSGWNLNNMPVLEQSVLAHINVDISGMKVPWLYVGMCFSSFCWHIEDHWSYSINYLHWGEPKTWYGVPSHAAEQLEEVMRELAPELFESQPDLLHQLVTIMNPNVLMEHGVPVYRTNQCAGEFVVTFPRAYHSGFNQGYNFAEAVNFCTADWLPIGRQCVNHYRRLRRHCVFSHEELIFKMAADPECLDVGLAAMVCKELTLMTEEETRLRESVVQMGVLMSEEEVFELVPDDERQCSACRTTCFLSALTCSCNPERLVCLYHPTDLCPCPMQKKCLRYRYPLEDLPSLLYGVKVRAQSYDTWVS
Protocol: (§1) Two catalytically active constructs of KDM5A were employed, KDM5A_c1 (M1-L801) and KDM5A_c2 (ΔARID/PHD1, P13-S744 with L88-G353 (ARID/PHD1) replaced with a GGGG linker) and both KDM5A_c1 and KDM5A_c2 constructs lack the PHD2 and PHD3. […] A MALDI-TOF MS assay was used to measure the activity of H3K4me3 demethylation in the presence of inhibitors (Table 2, Fig. 3C and D).
(§2) The KDM5A mixture (5 µL, KDM5A-c1: 1.0 µM or KDM5A-c2: 0.5 µM) was pre-incubated with 100 nL inhibitors (in DMSO) for 10 min. […] The mixture was quenched using formic acid (5 µL, 1 v/v% in MQ) after 4 minutes (KDM5A-c1) or 3 minutes (KDM5A-c2). The stopped reaction (1 µL) was mixed with […] (CHCA) MALDI matrix (saturated solution in TFA (0.1%) in MilliQ water and trifluoroacetic acid (0.1%) acetonitrile (1:1)) at 1:1 ratio (2 µL), air dried and analysed using Bruker microflex MALDI-TOF controlled with FlexControl. The data were further processed using FlexAnalysis and excel.

KDM7B(PHD) = molecular target: T2, KDM7B(PHD) (Homo sapiens, UniProt Q9UPP1); assay: AlphaScreen displacement of H3K4me3-Bn from His-KDM7B(PHD); format: binding; conditions: AlphaScreen; 12.5 nM protein and 12.5 nM peptide; n ≥ 3; read-out: IC50 for displacement of H3K4me3-Bn from His-KDM7B(PHD)
T2 construct: made in house
T2 sequence (Q9UPP1 41-92 limits assumed): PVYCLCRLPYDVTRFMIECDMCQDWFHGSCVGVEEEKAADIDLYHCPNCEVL
Protocol: For peptide displacement assays, 5 µL of the inhibitor dilution series (at a concentration of 4% DMSO in AlphaScreen assay buffer) was pre-incubated with 5 µL of the protein at RT for 15 minutes. Peptide solution (5 µL) was added and incubated for 30 minutes at RT, followed by the addition of 5 µL of a mixture of AlphaScreen Streptavidin donor beads and Nickel Chelate acceptor beads in AlphaScreen assay buffer (20 µg/mL final). The contents were incubated for 60-120 minutes at RT in the dark, followed by measurement of luminescence on a BMG Labtech Pherastar plate reader (Software Ver. 5.30 R3, Firmware Ver. 1.21). The data was plotted in Prism Ver 7.01 (GraphPad Software, Inc.) and fitted to a Log(inhibitor) v/s response – variable slope model in order to obtain IC50 values.

KDM7A (PHD-JmjC) = assay: MALDI-TOF MS H3K9me2 demethylation assay, KDM7A(PHD-JmjC); format: biochemical, human; conditions: at 100 µM, substrate H3(1–15)K9me2
Protocol: Final concentrations were: 1mM ascorbate, 50 µM (NH4)2Fe(II)(SO4)2 and 200 µM 2OG. The mixture was quenched using formic acid after 10 minutes (KDM7A) or 5 minutes (KDM7B).

KDM5A_c1 (M1-L801) = molecular target: T3, KDM5A_c1 (M1-L801) (Homo sapiens, UniProt P29375); assay: MALDI-TOF MS H3K4me3 demethylation assay, KDM5A_c1; format: biochemical; conditions: average ± StdDev of n = 2, read-out: IC50, inhibition of H3K4me3 demethylation activity, KDM5A_c1
T3 construct: made in house
T3 sequence (P29375 1-801): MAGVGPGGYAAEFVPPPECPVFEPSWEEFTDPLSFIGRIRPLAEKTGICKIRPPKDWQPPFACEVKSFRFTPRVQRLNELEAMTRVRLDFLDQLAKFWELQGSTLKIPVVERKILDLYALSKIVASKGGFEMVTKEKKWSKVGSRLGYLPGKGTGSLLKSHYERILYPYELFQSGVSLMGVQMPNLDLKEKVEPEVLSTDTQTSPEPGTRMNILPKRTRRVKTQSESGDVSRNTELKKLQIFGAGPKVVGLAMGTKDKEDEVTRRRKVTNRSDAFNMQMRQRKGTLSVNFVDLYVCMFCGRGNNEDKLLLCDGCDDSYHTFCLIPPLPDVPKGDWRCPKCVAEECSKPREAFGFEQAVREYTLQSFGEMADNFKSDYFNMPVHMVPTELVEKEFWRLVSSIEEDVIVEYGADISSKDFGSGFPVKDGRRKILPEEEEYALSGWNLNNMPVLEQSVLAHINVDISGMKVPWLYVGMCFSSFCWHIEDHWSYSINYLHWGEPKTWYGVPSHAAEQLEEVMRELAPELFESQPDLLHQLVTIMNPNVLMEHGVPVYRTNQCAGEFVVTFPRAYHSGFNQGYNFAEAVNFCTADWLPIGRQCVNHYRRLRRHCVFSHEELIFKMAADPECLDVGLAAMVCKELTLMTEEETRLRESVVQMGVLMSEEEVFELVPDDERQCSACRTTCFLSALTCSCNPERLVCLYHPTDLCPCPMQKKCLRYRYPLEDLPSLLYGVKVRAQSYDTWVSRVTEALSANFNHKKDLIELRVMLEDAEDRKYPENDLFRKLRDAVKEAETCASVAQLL
Protocol: as §1, §2

Compound | IC50 (KDM5A_c2 (ΔARID/PHD1)) | IC50 (KDM7B(PHD)) | KDM7A (PHD-JmjC) (Catalytic), inhibition of H3K9me2 demethylation (KDM7A (PHD-JmjC)) | IC50 (KDM5A_c1 (M1-L801))
CCCCc1oc2ccccc2c1C(=O)c1ccc(OCCCN(C)C)cc1 [Compound 1a, (2-Butylbenzofuran-3-yl)(4-(3-(dimethylamino)propoxy)phenyl)methanone] | > 1000 µM | 397 ± 77 µM | 100% (100 µM) | > 1000 µM
CCCCc1oc2ccccc2c1C(=O)c1ccc(OCCC[N+](C)(C)C)cc1.[I-] [Compound 2a, 3-(4-(2-Butylbenzofuran-3-carbonyl)phenoxy)-N,N,N-trimethylpropan-1-aminium iodide] | 37 ± 14 µM | 355 ± 39 µM | 100% (100 µM) | 80 ± 29 µM
